Read-outs that look alike come from different tables or passages of the source.
Assays:
RORγ = target: T1, RORγ (UniProt P51449); assay: RORγ Gal4 Reporter Gene Assay in 293T cells (firefly and renilla luciferase); assay type: cell-based, human
T1 sequence (P51449 1-518): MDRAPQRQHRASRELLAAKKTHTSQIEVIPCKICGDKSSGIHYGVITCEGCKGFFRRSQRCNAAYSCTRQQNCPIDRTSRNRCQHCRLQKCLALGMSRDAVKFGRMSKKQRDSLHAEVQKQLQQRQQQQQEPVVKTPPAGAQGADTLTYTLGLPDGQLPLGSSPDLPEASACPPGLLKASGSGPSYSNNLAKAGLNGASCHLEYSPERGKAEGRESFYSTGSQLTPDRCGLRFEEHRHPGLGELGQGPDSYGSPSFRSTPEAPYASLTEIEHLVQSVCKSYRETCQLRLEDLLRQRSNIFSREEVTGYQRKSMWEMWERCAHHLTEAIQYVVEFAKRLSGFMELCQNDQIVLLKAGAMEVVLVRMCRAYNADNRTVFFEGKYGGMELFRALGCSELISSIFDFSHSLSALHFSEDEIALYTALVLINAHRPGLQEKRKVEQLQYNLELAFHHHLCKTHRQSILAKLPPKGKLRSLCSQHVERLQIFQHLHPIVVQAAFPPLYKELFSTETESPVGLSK

[1] = target: T2, RORγ ligand binding domain (LBD) (Homo sapiens, UniProt P51449); assay: TR-FRET Activity Assay (ligand sensing, RORγ-LBD / coactivator peptide interaction, LANCE); assay type: biochemical
T2 construct: made in house; host or cells: E. coli BL-21 (BL3), vector pDEST15
T2 sequence (P51449 269-508 limits assumed): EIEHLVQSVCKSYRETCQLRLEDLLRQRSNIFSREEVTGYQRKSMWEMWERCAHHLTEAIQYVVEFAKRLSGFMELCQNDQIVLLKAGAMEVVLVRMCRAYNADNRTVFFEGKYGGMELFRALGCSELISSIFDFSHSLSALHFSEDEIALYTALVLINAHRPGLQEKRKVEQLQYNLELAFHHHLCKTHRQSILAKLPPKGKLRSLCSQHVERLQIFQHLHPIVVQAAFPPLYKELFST

[2] = second value of the cell, Gal4 reporter gene assay in 293T cells, firefly luciferase
[3] = third value of the cell, Gal4 reporter gene assay in 293T cells, renilla normalised luciferase
[4] = first value of the cell FRET/FF/REN, TR-FRET activity assay, read-out: pIC50 (FRET) (converted)

| pIC50 (FF) (RORγ; [2]) | pIC50 (REN) (RORγ; [3]) | IC50 [1, 4] | SMILES | pIC50 (FF) (RORγ) | pIC50 (REN) (RORγ) | IC50 [1] |
| --- | --- | --- | --- | --- | --- | --- |
| 6.7 | 6.7 | 1000 nM | Cc1c(C(=O)NCC2(O)CC[S+]([O-])CC2)cc(-c2cc(C(C)(C)C)c3c(c2)C2(CCO3)CC2)n1CC1CCCCC1 (stereo not drawn) [17/38] |  |  |  |
|  |  |  | Cc1c(C(=O)N(C)CC2(O)CCOCC2)cc(-c2cc(C(C)(C)C)c3c(c2)C2(CCO3)CC2)n1CC1CCCCC1 [17/39] | 6.4/6.9/6.8 | 6.4/6.9/6.8 | 398 nM |
| 6.9 | 6.8 | 1260 nM | Cc1c(C(=O)NCC2(C(=O)O)CCOCC2)cc(-c2cc(C(C)(C)C)c3c(c2)C2(CCO3)CC2)n1CC1CCCCC1 [17/40] |  |  |  |
|  |  |  | Cc1c(C(=O)NC2COC2)cc(-c2cc(C(C)(C)C)cc(C(C)(C)CF)c2)n1CC1CCCCC1 [17/42] | 5.7/7.5/7.6 | 5.7/7.5/7.6 | 2000 nM |
|  |  |  | Cc1c(C(=O)NCC2(CCO)COC2)cc(-c2cc(C(C)(C)C)cc(C(C)(C)C)c2)n1CC1CCCCC1 [17/44] | 6.2/6.1/6.1 | 6.2/6.1/6.1 | 631 nM |
|  |  |  | Cc1c(C(=O)N2CC2CO)cc(-c2cc(C(C)(C)C)cc(C(C)(C)C)c2)n1CC1CCCCC1 (stereo not drawn) [17/45] | 6.0/6.5/6.4 | 6.0/6.5/6.4 | 1000 nM |
| 6.5/6.5/6.5 | 6.5/6.5/6.5 | 316 nM | COC(=O)CC1(NC(=O)c2cc(-c3cc(C(C)(C)C)cc(C(C)(C)C)c3)n(CC3CCCCC3)c2C)COC1 [17/46] |  |  |  |
|  |  |  | COCC1(CNC(=O)c2cc(-c3cc(C(C)(C)C)cc(C4(C)CC4)c3)n(CC3CCCCC3)c2C)COC1 [17/47] | 6.7/7.3/7.4 | 6.7/7.3/7.4 | 200 nM |
| 7.6 | 7.5 | 1000 nM | Cc1c(C(=O)NCC2(O)CCOCC2)cc(-c2cc(C(C)(C)C)c3c(c2)C(C)(C)C(=O)N3C)n1CC1CCCCC1 [17/48] |  |  |  |
| 7.0 | 7.1 | 2000 nM | Cc1c(C(=O)NCC(C)(C)C(=O)O)cc(-c2cc(C(C)(C)C)c3c(c2)C(C)(C)C(=O)N3C)n1CC1CCCCC1 [17/49] |  |  |  |
| 6.7 | 6.7 | 1580 nM | Cc1c(C(=O)NCC2(C(=O)O)CC2)cc(-c2cc(C(C)(C)C)c3c(c2)C2(CCO3)CC2)n1CC1CCCCC1 [17/51] |  |  |  |
| 6.7 | 6.7 | 1580 nM | Cc1c(C(=O)N2CC(C(=O)O)C2)cc(-c2cc(C(C)(C)C)c3c(c2)C2(CCO3)CC2)n1CC1CCCCC1 [17/52] |  |  |  |
| 6.9 | 6.9 | 1580 nM | Cc1c(C(=O)N2CCC(C(=O)O)CC2)cc(-c2cc(C(C)(C)C)c3c(c2)C2(CCO3)CC2)n1CC1CCCCC1 [17/53] |  |  |  |
| 7.1 | 7.2 | 1580 nM | Cc1c(C(=O)N2CCC(C)(C(=O)O)CC2)cc(-c2cc(C(C)(C)C)c3c(c2)C2(CCO3)CC2)n1CC1CCCCC1 [17/54] |  |  |  |
| 7.5 | 7.6 | 2000 nM | Cc1c(C(=O)N[C@H]2C[C@H](C(=O)O)C2)cc(-c2cc(C(C)(C)C)c3c(c2)C2(CCO3)CC2)n1CC1CCCCC1 [17/55] |  |  |  |
| 6.4 | 6.4 | 12600 nM | Cc1c(C(=O)N[C@H]2C[C@@H](C(=O)O)C2)cc(-c2cc(C(C)(C)C)c3c(c2)C2(CCO3)CC2)n1CC1CCCCC1 [17/56] |  |  |  |
| 7.4 | 7.5 | 794 nM | Cc1c(C(=O)N[C@H]2CC[C@H](C(=O)O)CC2)cc(-c2cc(C(C)(C)C)c3c(c2)C2(CCO3)CC2)n1CC1CCCCC1 [17/57] |  |  |  |
| 6.7 | 6.7 | 1580 nM | Cc1c(C(=O)N[C@H]2CC[C@@H](C(=O)O)CC2)cc(-c2cc(C(C)(C)C)c3c(c2)C2(CCO3)CC2)n1CC1CCCCC1 [17/58] |  |  |  |
|  |  |  | Cc1c(C(=O)NC[C@H]2CC[C@H](C(=O)O)CC2)cc(-c2cc(C(C)(C)C)c3c(c2)C2(CCO3)CC2)n1CC1CCCCC1 [17/59] | 5.7/6.6/6.6 | 5.7/6.6/6.6 | 2000 nM |
| 7.6 | 7.6 | 1580 nM | Cc1c(C(=O)NCC(C)(C)C(=O)O)cc(-c2cc(C(C)(C)C)cc(C3(C)CC3)c2)n1CC1CCCCC1 [17/60] |  |  |  |
| 8.3 | 8.3 | 316 nM | Cc1c(C(=O)NCC2(C(N)=O)CCOCC2)cc(-c2cc(C(C)(C)C)cc(C3(C)CC3)c2)n1CC1CCCCC1 [17/62] |  |  |  |
|  |  |  | Cc1c(C(=O)NCC2CCOCC2)cc(-c2cc(C(C)(C)C)cc(C3(C)CC3)c2)n1CC1CCCCC1 [17/63] | 6.7/7.7/7.6 | 6.7/7.7/7.6 | 200 nM |
| 7.8 | 7.7 | 316 nM | Cc1c(C(=O)NCC2(O)CCOCC2)cc(-c2cc(C(C)(C)C)cc(C3(C)CC3)c2)n1CC1CCCCC1 [17/64] |  |  |  |
|  |  |  | Cc1c(C(=O)NCC(C)(C)NS(C)(=O)=O)cc(-c2cc(C(C)(C)C)cc(C3(C)CC3)c2)n1CC1CCCCC1 [17/67] | 6.6/7.7/7.5 | 6.6/7.7/7.5 | 251 nM |
|  |  |  | COC(C)(C)CNC(=O)c1cc(-c2cc(C(C)(C)C)cc(C3(C)CC3)c2)n(CC2CCCCC2)c1C [17/68] | 6.8/7.4/7.5 | 6.8/7.4/7.5 | 158 nM |
| 7.2 | 7.4 | > 20000 nM | Cc1c(C(=O)NC2CCOCC2)cc(-c2ccc(S(=O)(=O)N3CCCCC3(C)C)c(C(F)(F)F)c2)n1CC1CCCCC1 [17/69] |  |  |  |
| 7.9 | 7.9 | 1260 nM | Cc1c(C(=O)NCCc2nnn[nH]2)cc(-c2cc(C(C)(C)C)cc(C3(C)CC3)c2)n1CC1CCCCC1 [17/70] |  |  |  |
| 6.9 | 6.8 | 1580 nM | Cc1c(C(=O)NCc2nnn[nH]2)cc(-c2cc(C(C)(C)C)cc(C3(C)CC3)c2)n1CC1CCCCC1 [17/71] |  |  |  |

| SMILES | pIC50 (FF) (RORγ; [2]) | pIC50 (REN) (RORγ; [3]) | IC50 [1, 4] | pIC50 (FF) (RORγ) | pIC50 (REN) (RORγ) | IC50 [1] |
| --- | --- | --- | --- | --- | --- | --- |
| Cc1c(C(=O)NCC2(O)COC2)cc(-c2cc(C(C)(C)C)c3c(c2)C2(CCO3)CC2)n1CC1CCCCC1 [17/36] | 6.9 | 6.9 | 794 nM |  |  |  |
| Cc1c(C(=O)NCC2(O)CCSCC2)cc(-c2cc(C(C)(C)C)c3c(c2)C2(CCO3)CC2)n1CC1CCCCC1 [17/37] | 7.1 | 7.1 | 1260 nM |  |  |  |
| Cc1c(C(=O)NCC2(C(N)=O)CCOCC2)cc(-c2cc(C(C)(C)C)c3c(c2)C2(CCO3)CC2)n1CC1CCCCC1 [17/41] | 8.1 | 8.2 | 398 nM |  |  |  |
| Cc1c(C(=O)NCC2COC2)cc(-c2cc(C(C)(C)C)cc(C(C)(C)C)c2)n1CC1CCCCC1 [17/43] | 7.4 | 7.4 | 200 nM |  |  |  |
| Cc1c(C(=O)NCC2(C(=O)O)CCOCC2)cc(-c2cc(C(C)(C)C)cc(C3(C)CC3)c2)n1CC1CCCCC1 [17/61] | 7.4 | 7.5 | 1000 nM |  |  |  |
| Cc1c(C(=O)N[C@H]2CCOC2)cc(-c2cc(C(C)(C)C)cc(C3(C)CC3)c2)n1CC1CCCCC1 [17/65] | 7.7 | 7.7 |  |  |  | 200 nM |
| Cc1c(C(=O)N[C@@H]2CCOC2)cc(-c2cc(C(C)(C)C)cc(C3(C)CC3)c2)n1CC1CCCCC1 [17/66] | 7.4 | 7.4 |  |  |  | 158 nM |

Reference: patent US9815851B2, “Pyrrolo carboxamides as modulators of orphan nuclear receptor RAR-related orphan receptor-gamma (RORγ, NR1F3) activity and for the treatment of chronic inflammatory and autoimmune diseases” (PHENEX PHARMACEUTICALS AG, priority 2011, dated 2017)
